Laboratory results as given in patent US8629157B2, “Pyrrolidine compounds which modulate the CB2 receptor” (Boehringer Ingelheim International GmbH, priority 2009, dated 2014).
pEC50: −log10 of the molar value.

biological target: human CB2R (Homo sapiens, UniProt P34972); test: CB2R mediated modulation of cAMP synthesis; format: cell-based; settings: not given
Summary of the method: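 CHO cells expressing human CB2R were treated 30 min at 37° C. with compounds in buffer containing 1 mM IBMX, 0.25% BSA and 10 uM forskolin; cAMP in lysates was measured by DiscoverX-XS kit.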

human CB2R, sequence (P34972 whole entry): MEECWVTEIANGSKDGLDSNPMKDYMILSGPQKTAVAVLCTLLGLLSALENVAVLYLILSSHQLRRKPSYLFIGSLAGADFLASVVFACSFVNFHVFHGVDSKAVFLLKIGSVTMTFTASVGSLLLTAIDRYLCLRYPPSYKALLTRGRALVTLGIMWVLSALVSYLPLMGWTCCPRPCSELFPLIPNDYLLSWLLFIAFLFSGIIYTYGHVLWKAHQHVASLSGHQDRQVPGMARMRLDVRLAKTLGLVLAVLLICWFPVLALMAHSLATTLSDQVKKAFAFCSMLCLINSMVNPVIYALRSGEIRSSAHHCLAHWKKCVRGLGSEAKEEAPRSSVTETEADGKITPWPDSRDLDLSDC

Going from `CC(C)(C)c1cc(NC(=O)[C@@H]2CCC(=O)N2c2ccc(F)c(F)c2)on1` [(S)-1-(3,4-Difluoro-phenyl)-5-oxo-pyrrolidine-2-carboxylic acid (3-tert-butyl-isoxazol-5-yl)-amide] to `Cc1ccc(N2C(=O)CC[C@H]2C(=O)Nc2cc(C(C)(C)C)no2)cc1Cl` [(S)-l-(3-Chloro-4-methyl-phenyl)-5-oxo-pyrrolidine-2-carboxylic acid (3-tert-butyl-isoxazol-5-yl)-amide], the pEC50 falls from 7.80 to 7.11 (0.69 log units). The first is the more potent here.

Compared with `CC(C)(C)c1cc(NC(=O)[C@@H]2CCC(=O)N2c2ccc(Cl)c(Cl)c2)on1` [(S)-1-(3,4-Dichloro-phenyl)-5-oxo-pyrrolidine-2-carboxylic acid (3-tert-butyl-isoxazol-5-yl)-amide], `CCc1ccc(N2C(=O)CC[C@H]2C(=O)Nc2cc(C(C)(C)C)no2)cc1` [(S)-1-(4-Ethyl-phenyl)-5-oxo-pyrrolidine-2-carboxylic acid (3-tert-butyl-isoxazol-5-yl)-amide] is 1.03 log units lower in pEC50: 7.79 for the first, 6.76 for the second.

Compared with `CC(C)(C)c1nc(NC(=O)[C@@H]2CCCN2c2ccc(Cl)cc2)sc1C#N` [(S)-1-(4-Chloro-phenyl)-pyrrolidine-2-carboxylic acid (4-tert-butyl-5-cyano-thiazol-2-yl)-amide], `CC(C)(C)c1nnc(NC(=O)[C@@H]2CCCN2c2ccc(Cl)cc2)s1` [(S)-1-(4-Chloro-phenyl)-pyrrolidine-2-carboxylic acid (5-tert-butyl-1,3,4-thiadiazol-2-yl)-amide] is 2.51 log units higher in pEC50: 7.50 for the first, 10.01 for the second. The second is the more potent here.

First: O=C(Nc1ccc(C(F)(F)F)cn1)[C@H]1CCCN1c1ccc(C(F)(F)F)cc1 [(R)-1-(4-Trifluoromethyl-phenyl)-pyrrolidine-2-carboxylic acid (5-trifluoromethyl-pyridin-2-yl)-amide]
Second: O=C(Nc1cc(C(F)(F)F)ccn1)[C@@H]1CCCN1c1ccc(Cl)cc1 [(S)-1-(4-Chloro-phenyl)-pyrrolidine-2-carboxylic acid (4-trifluoromethyl-pyridin-2-yl)-amide]
The pEC50 of the first is 0.48 log units lower: 7.15 for the first, 7.63 for the second.

Compared with `CC(C)(C)c1cc(NC(=O)[C@@H]2C[C@H](O)CN2c2ncc(C(F)(F)F)cc2Cl)no1` [(2S,4S)-1-(3-Chloro-5-trifluoromethyl-pyridin-2-yl)-4-hydroxy-pyrrolidine-2-carboxylic acid (5-tert-butyl-isoxazol-3-yl)-amide], `CC(C)(C)c1cc(NC(=O)C2CCCN2c2ncc(C(F)(F)F)cc2Cl)no1` (stereo not drawn) [1-(3-Chloro-5-trifluoromethyl-pyridin-2-yl)-pyrrolidine-2-carboxylic acid (5-tert-butyl-isoxazol-3-yl)-amide] is 1.53 log units higher in pEC50: 8.87 for the first, 10.40 for the second. The second is the more potent here.

Compared with `CC(C)(C)c1cc(NC(=O)[C@@H]2C[C@@H](O)CN2Cc2ccc(F)c(F)c2)on1` [(2S,4R)-1-(3,4-Difluoro-benzyl)-4-hydroxy-pyrrolidine-2-carboxylic acid (3-tert-butyl-isoxazol-5-yl)-amide], `CC(C)(C)c1cc(NC(=O)[C@@H]2CCCN2Cc2ccc(Cl)cc2)on1` [(S)-1-(4-Chloro-benzyl)-pyrrolidine-2-carboxylic acid (3-tert-butyl-isoxazol-5-yl)-amide] is 0.48 log units higher in pEC50: 8.16 for the first, 8.64 for the second.

Going from `O=C(Nc1nc(C(F)(F)F)cs1)[C@@H]1CCCN1c1ccc(Cl)cc1` [(S)-1-(4-Chloro-phenyl)-pyrrolidine-2-carboxylic acid (4-trifluoromethyl-thiazol-2-yl)-amide] to `O=C(Nc1nnc(-c2ccccc2)s1)[C@@H]1CCCN1c1ccc(Cl)cc1` [(S)-1-(4-Chloro-phenyl)-pyrrolidine-2-carboxylic acid (5-phenyl-1,3,4-thiadiazol-2-yl)-amide], the pEC50 rises from 7.05 to 7.95 (0.90 log units). The second is the more potent here.

Going from `CC(C)c1cc(NC(=O)[C@@H]2CCC(=O)N2c2ccc(C(F)(F)F)cc2)on1` [(S)-5-Oxo-1-(4-trifluoromethyl-phenyl)-pyrrolidine-2-carboxylic acid (3-isopropyl-isoxazol-5-yl)-amide] to `CC(C)(C)c1cc(NC(=O)[C@@H]2CCC(=O)N2c2ccc(C(F)(F)F)cc2)no1` [(S)-5-Oxo-1-(4-trifluoromethyl-phenyl)-pyrrolidine-2-carboxylic acid (5-tert-butyl-isoxazol-3-yl)-amide], the pEC50 rises from 7.38 to 8.24 (0.86 log units). The second is the more potent here.

`O=C(Nc1nc2cc(Cl)c(Cl)cc2[nH]1)[C@@H]1CCCN1C1CCOCC1` [(S)-1-(Tetrahydro-pyran-4-yl)-pyrrolidine-2-carboxylic acid (5,6-dichloro-1H-benzimidazol-2-yl)-amide] and `O=C(Nc1nc2ccc(Cl)cc2s1)[C@@H]1CCCN1CC1CCOCC1` [(S)-1-(Tetrahydro-pyran-4-ylmethyl)-pyrrolidine-2-carboxylic acid (6-chloro-benzothiazol-2-yl)-amide] are within 0.2 log units of each other in pEC50: 6.78 for the first, 6.73 for the second.

`CCc1sc(NC(=O)[C@@H]2CCCN2CC2CCOCC2)nc1-c1ccccc1` [(S)-1-(Tetrahydro-pyran-4-ylmethyl)-pyrrolidine-2-carboxylic acid (5-ethyl-4-phenyl-thiazol-2-yl)-amide] and `CC(C)(C)c1nnc(NC(=O)[C@@H]2CCCN2CC2CCOCC2)s1` [(S)-1-(Tetrahydro-pyran-4-ylmethyl)-pyrrolidine-2-carboxylic acid (5-tert-butyl-1,3,4-thiadiazol-2-yl)-amide] are within 0.2 log units of each other in pEC50: 7.96 for the first, 7.78 for the second.

First: CC(=O)N1CCC(CNC(=O)[C@@H]2CCCN2c2ccc(Cl)cc2)CC1 [(S)-1-(4-Chloro-phenyl)-pyrrolidine-2-carboxylic acid (1-acetyl-piperidin-4-ylmethyl)-amide]
Second: CC1CC(NC(=O)[C@@H]2CCCN2c2ccc(Cl)cc2)CC(C)(C)C1 (stereo partly drawn) [(S)-1-(4-Chloro-phenyl)-pyrrolidine-2-carboxylic acid (3,3,5-trimethyl-cyclohexyl)-amide]
The pEC50 of the first is 2.15 log units higher: 10.82 for the first, 8.67 for the second.

Compared with `O=C(NCCC1CCCCC1)[C@@H]1CCC(=O)N1c1ccc(Cl)cc1` [(S)-1-(4-Chloro-phenyl)-5-oxo-pyrrolidine-2-carboxylic acid (2-cyclohexyl-ethyl)-amide], `CC(C)(CO)c1cc(NC(=O)[C@@H]2CCC(=O)N2c2ccc(Cl)cc2)on1` [(S)-1-(4-Chloro-phenyl)-5-oxo-pyrrolidine-2-carboxylic acid [3-(2-hydroxy-1,1-dimethyl-ethyl)-isoxazol-5-yl]-amide] is 0.34 log units higher in pEC50: 6.48 for the first, 6.82 for the second. The second is the more potent here.

Going from `CC1CCCCC1N1CCC[C@H]1C(=O)Nc1nnc(C(C)(C)C)s1` (stereo partly drawn) [1-(2-Methyl-cyclohexyl)-pyrrolidine-2-carboxylic acid (5-tert-butyl-1,3,4-thiadiazol-2-yl)-amide] to `CC(C)(C)c1nnc(NC(=O)[C@@H]2CCCN2C2CCCC2(C)C)s1` (stereo partly drawn) [1-(2,2-Dimethyl-cyclopentyl)-pyrrolidine-2-carboxylic acid (5-tert-butyl-1,3,4-thiadiazol-2-yl)-amide], the pEC50 falls from 6.59 to 6.35 (0.24 log units).

Going from `CC(C)(C)c1cc(NC(=O)[C@@H]2C[C@H](O)CN2C2CCOCC2)on1` [(2S,4S)-4-Hydroxy-1-(tetrahydro-pyran-4-yl)-pyrrolidine-2-carboxylic acid (3-tert-butyl-isoxazol-5-yl)-amide] to `CC(C)(C)c1cc(NC(=O)[C@@H]2C[C@@H](O)CN2C2CCOCC2)on1` [(2S,4R)-4-Hydroxy-1-(tetrahydro-pyran-4-yl)-pyrrolidine-2-carboxylic acid (3-tert-butyl-isoxazol-5-yl)-amide], the pEC50 falls from 7.23 to 6.48 (0.75 log units). The first is the more potent here.

`CC(C)(C)c1cc(NC(=O)[C@@H]2CCC(=O)N2c2ccc(C#N)cc2)no1` [(S)-1-(4-cyano-phenyl)-5-oxo-pyrrolidine-2-carboxylic acid (5-tert-butyl-isoxazol-3-yl)-amide] and `C=Cc1ccc(N2C(=O)CC[C@H]2C(=O)Nc2cc(C(C)(C)C)on2)cc1` [(S)-5-Oxo-1-(4-vinyl-phenyl)-pyrrolidine-2-carboxylic acid (5-tert-butyl-isoxazol-3-yl)-amide] are within 0.2 log units of each other in pEC50: 7.22 for the first, 7.16 for the second.

`COc1ccc(N2C(=O)CC[C@H]2C(=O)Nc2cc(C(C)(C)C)no2)nc1` [(S)-1-(5-Methoxy-pyridin-2-yl)-5-oxo-pyrrolidine-2-carboxylic acid (3-tert-butyl-isoxazol-5-yl)-amide] and `COCC(C)(C)c1cc(NC(=O)[C@@H]2CCC(=O)N2c2ccc(C(F)(F)F)cc2)no1` [(S)-5-Oxo-1-(4-trifluoromethyl-phenyl)-pyrrolidine-2-carboxylic acid [5-(2-methoxy-1,1-dimethyl-ethyl)-isoxazol-3-yl]-amide] are within 0.2 log units of each other in pEC50: 7.66 for the first, 7.82 for the second.

First: CC(C)(C)c1cc(NC(=O)[C@]2(C)CCCN2c2ccc(C(F)(F)F)cc2)no1 [(S)-2-Methyl-1-(4-trifluoromethyl-phenyl)-pyrrolidine-2-carboxylic acid (5-tert-butyl-isoxazol-3-yl)-amide]
Second: CC(C)(C)c1cc(NC(=O)[C@@H]2C[C@@H](O)CN2c2ccc(Cl)cc2)no1 [(2S,4R)-1-(4-Chloro-phenyl)-4-hydroxy-pyrrolidine-2-carboxylic acid (5-tert-butyl-isoxazol-3-yl)-amide]
The pEC50 of the first is 1.86 log units higher: 9.70 for the first, 7.84 for the second. The first is the more potent here.

`CC(C)(C)c1cc(NC(=O)[C@@H]2CCCN2CC2C=CCCC2)on1` (stereo partly drawn) [(S)-1-Cyclohex-2-enylmethyl-pyrrolidine-2-carboxylic acid (3-tert-butyl-isoxazol-5-yl)-amide] was tested, and the pEC50 was 10.14.

same assay, conditions: CHO cells expressing human CB2R; inhibition of forskolin-stimulated cAMP synthesis; mean; read-out: CB2 CAMP @ EC50 nM (mean)

Going from `O=C(Nc1nc2cc(Cl)ccc2s1)[C@@H]1CCCN1CC1CCOCC1` [(S)-1-(Tetrahydro-pyran-4-ylmethyl)-pyrrolidine-2-carboxylic acid (5-chloro-benzothiazol-2-yl)-amide] to `O=C(Nc1nc2cc(F)ccc2[nH]1)[C@@H]1CCCN1C1CCOCC1` [(S)-1-(Tetrahydro-pyran-4-yl)-pyrrolidine-2-carboxylic acid (5-fluoro-1H-benzimidazol-2-yl)-amide], the EC50 rises from 3.14 nM to 391 nM (120-fold).

`COc1ccc(-c2nsc(NC(=O)[C@@H]3CCC(=O)N3c3ccc(Cl)cc3)n2)cc1` [(S)-1-(4-Chloro-phenyl)-5-oxo-pyrrolidine-2-carboxylic acid [3-(4-methoxy-phenyl)-1,2,4-thiadiazol-5-yl]-amide] and `CCCc1cc(NC(=O)[C@@H]2C[C@@H](O)CN2CC2CCOCC2)on1` [(2S,4R)-4-Hydroxy-1-(tetrahydro-pyran-4-ylmethyl)-pyrrolidine-2-carboxylic acid (3-propyl-isoxazol-5-yl)-amide] are within 1.5-fold of each other in EC50: 194 nM for the first, 248 nM for the second.
